Data: US11472803B2, “7-substituted 1-aryl-naphthyridine-3-carboxylic acid amides and use thereof” (Bayer Aktiengesellschaft, priority 2016, dated 2022)

Target: T1, human M2 receptor (Homo sapiens, UniProt P08172)
T1 construct: expressed in transfected cells; host or cells: CHO-DUKX (CHO-DUKX-M2-GIRK)
T1 sequence (P08172 1-466): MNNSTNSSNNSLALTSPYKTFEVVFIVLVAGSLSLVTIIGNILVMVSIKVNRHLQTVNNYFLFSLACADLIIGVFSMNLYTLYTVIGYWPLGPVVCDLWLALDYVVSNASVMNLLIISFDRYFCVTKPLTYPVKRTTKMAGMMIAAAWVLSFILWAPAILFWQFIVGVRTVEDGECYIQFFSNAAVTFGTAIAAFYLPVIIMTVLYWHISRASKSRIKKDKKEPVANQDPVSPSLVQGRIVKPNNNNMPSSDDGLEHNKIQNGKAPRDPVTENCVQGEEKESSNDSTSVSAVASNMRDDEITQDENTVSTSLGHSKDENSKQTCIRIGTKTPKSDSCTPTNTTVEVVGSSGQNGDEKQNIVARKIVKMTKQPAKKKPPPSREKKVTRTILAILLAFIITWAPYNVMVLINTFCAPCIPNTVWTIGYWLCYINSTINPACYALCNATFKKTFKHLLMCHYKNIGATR
Test: Functional M2-GIRK1/4 activation test: allosteric potency (EC50) and efficiency at EC20 acetylcholine
Format: cell-based
Details: CHO-DUKX-M2-GIRK cells; for EC50: voltage-sensitive dye, acetylcholine at EC20, in some cases mean of two or more determinations; for Emax / Efficiency: boosting of the acetylcholine effect at EC20 acetylcholine concentration
Method in brief: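 CHO-DUKX cells stably expressing human M2 and GIRK1/4; membrane potential tracked with voltage-sensitive dye at room temperature. Compound added 50 s before acetylcholine at its EC20, then hyperpolarization read 60 s. EC50 (allosteric potency) and efficiency (boost of EC20 ACh effect) from 4-parameter Hill fit.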

Compound	EC50 [nM]	Emax [%]	Efficiency [%]
CCC(NC(=O)c1cn(-c2c(F)cc(F)cc2F)c2nc(N3CCOCC3)c(F)cc2c1=O)C(F)(F)C(F)(F)F (racemic) [Example 148, 6-Fluoro-7-(morpholin-4-yl)-4-oxo-N-[1,1,1,2,2-pentafluoropentan-3-yl]-1-(2,4,6-trifluoro-phenyl)-1,4-dihydro-1,8-naphthyridine-3-carboxamide]	18.7	96	
O=C(NC(C(F)(F)F)C(F)(F)F)c1cn(-c2ncc(F)cc2F)c2nc(N3CCCC[C@@H]3CO)c(F)cc2c1=O [Example 190, 1-(3,5-Difluoropyridin-2-yl)-6-fluoro-N-(1,1,1,3,3,3-hexafluoropropan-2-yl)-7-[(2R)-2-(hydroxymethyl)piperidin-1-yl]-4-oxo-1,4-dihydro-1,8-naphthyridine-3-carboxamide]	83.5	100	
CN1CCN(c2nc3c(cc2F)c(=O)c(C(=O)N[C@@H](C2CC2)C(F)(F)F)cn3-c2c(F)cc(F)cc2F)CC1CO (stereo partly drawn) [Example 179, N-[(1S)-1-Cyclopropyl-2,2,2-trifluoroethyl]-6-fluoro-7-[3-(hydroxymethyl)-4-methylpiperazin-1-yl]-4-oxo-1-(2,4,6-trifluorophenyl)-1,4-dihydro-1,8-naphthyridine-3-carboxamide]	27	100	
CC(C)(NC(=O)c1cn(-c2c(F)cc(F)cc2Cl)c2nc(N3C[C@@H](O)[C@H](O)C3)c(F)cc2c1=O)C(F)(F)F (single isomer, unassigned) [Example 49]	68	74	
O=C(N[C@@H](C1CC1)C(F)(F)F)c1cn(-c2c(F)cc(F)cc2Cl)c2nc(N3C[C@@H](O)[C@H](O)C3)c(F)cc2c1=O (single isomer, unassigned) [Example 51]	36	81	
CC[C@H](NC(=O)c1cn(-c2c(F)cc(F)cc2F)c2nc(N3CCOCC3)c(F)cc2c1=O)C(F)(F)F [Example 151, 6-Fluoro-7-(morpholin-4-yl)-4-oxo-N-[(2S)-1,1,1-trifluorobutan-2-yl]-1-(2,4,6-trifluoro-phenyl)-1,4-dihydro-1,8-naphthyridine-3-carboxamide]	24	100	
C[C@@H](NC(=O)c1cn(-c2c(F)cc(F)cc2Cl)c2nc(N3C[C@@H](O)[C@H](O)C3)c(F)cc2c1=O)C(F)(F)F [Example 227, 1-(2-Chloro-4,6-difluorophenyl)-7-[(3R,4R)-3,4-dihydroxypyrrolidin-1-yl]-6-fluoro-4-oxo-N-[(2R)-1,1,1-trifluoropropan-2-yl]-1,4-dihydro-1,8-naphthyridine-3-carboxamide]	11	94	
CC(C)(NC(=O)c1cn(-c2c(F)cc(F)cc2F)c2nc(N3CCOCC3)c(F)cc2c1=O)C(F)F [Example 150, N-(1,1-Difluoro-2-methylpropan-2-yl)-6-fluoro-7-(morpholin-4-yl)-4-oxo-1-(2,4,6-trifluoro-phenyl)-1,4-dihydro-1,8-naphthyridine-3-carboxamide]	24	93	
CCC(C)(CC)NC(=O)c1cn(-c2ncc(F)cc2F)c2nc(N3C[C@@H](O)[C@H](O)C3)c(F)cc2c1=O [Example 76, 1-(3,5-Difluoropyridin-2-yl)-7-[(3R,4R)-3,4-dihydroxypyrrolidin-1-yl]-6-fluoro-N-(3-methylpentan-3-yl)-4-oxo-1,4-dihydro-1,8-naphthyridine-3-carboxamide]	29	100	
CN(CCO)c1nc2c(cc1F)c(=O)c(C(=O)N[C@@H](C1CC1)C(F)(F)F)cn2-c1c(F)cc(F)cc1F [Example 55, N-[(1S)-1-Cyclopropyl-2,2,2-trifluoroethyl]-6-fluoro-7-[(2-hydroxyethyl)(methyl)amino]-4-oxo-1-(2,4,6-trifluorophenyl)-1,4-dihydro-1,8-naphthyridine-3-carboxamide]	25	96	
CC(NC(=O)c1cn(-c2c(F)cc(F)cc2F)c2nc(N3CCC(O)C(O)C3)c(F)cc2c1=O)C(F)(F)C(F)(F)F (single isomer, unassigned) [Example 183, 7-(3,4-Dihydroxypiperidin-1-yl)-6-fluoro-4-oxo-N-(3,3,4,4,4-pentafluorobutan-2-yl)-1-(2,4,6-trifluorophenyl)-1,4-dihydro-1,8-naphthyridine-3-carboxamide]	42.3		96
O=C(NC(c1ccccc1Cl)C(F)(F)F)c1cn(-c2ccc(F)cc2F)c2ncc(Cl)cc2c1=O (racemic) [Example 134, 6-Chloro-N-[1-(2-chlorophenyl)-2,2,2-trifluoroethyl]-1-(2,4-difluorophenyl)-4-oxo-1,4-dihydro-1,8-naphthyridine-3-carboxamide]	1830	55	
CCC(C)(C)NC(=O)c1cn(-c2ncc(F)cc2F)c2nc(N3C[C@@H](O)[C@H](O)C3)c(F)cc2c1=O [Example 75, 1-(3,5-Difluoropyridin-2-yl)-7-[(3R,4R)-3,4-dihydroxypyrrolidin-1-yl]-6-fluoro-N-(2-methyl-butan-2-yl)-4-oxo-1,4-dihydro-1,8-naphthyridine-3-carboxamide]	87	100	
CC(C)(NC(=O)c1cn(-c2c(F)cc(F)cc2F)c2nc(N3CC[C@H](O)[C@@H]3CO)c(F)cc2c1=O)C(F)(F)C(F)(F)F [Example 193, 6-Fluoro-7-[(2S,3S)-3-hydroxy-2-(hydroxymethyl)pyrrolidin-1-yl]-4-oxo-N-(3,3,4,4,4-pentafluoro-2-methylbutan-2-yl)-1-(2,4,6-trifluorophenyl)-1,4-dihydro-1,8-naphthyridine-3-carboxamide]	32.5	100	

Second part, the molecule after the results:

EC50 [nM]	Emax [%]	Efficiency [%]	Compound
11	100		CC[C@@H](NC(=O)c1cn(-c2c(F)cc(F)cc2F)c2nc(N3C[C@@H](O)[C@@H](O)C3)c(F)cc2c1=O)C(F)(F)F [Example 155, 7-[(3R,4S)-3,4-Dihydroxypyrrolidin-1-yl]-6-fluoro-4-oxo-N-[(2R)-1,1,1-trifluorobutan-2-yl]-1-(2,4,6-trifluorophenyl)-1,4-dihydro-1,8-naphthyridine-3-carboxamide]
2.8	100		CCC(C)(CC)NC(=O)c1cn(-c2c(F)cc(F)cc2F)c2nc(N3C[C@@H](O)[C@@H](O)C3)c(F)cc2c1=O [Example 78, 7-[(3R,4S)-3,4-Dihydroxypyrrolidin-1-yl]-6-fluoro-N-(3-methylpentan-3-yl)-4-oxo-1-(2,4,6-trifluorophenyl)-1,4-dihydro-1,8-naphthyridine-3-carboxamide]
3.4	100		CC(C)C(NC(=O)c1cn(-c2c(F)cc(F)cc2F)c2nc(N3CC[C@H](O)C3)c(F)cc2c1=O)C(F)(F)F (single isomer, unassigned) [Example 139]
3.15	100		CCC(NC(=O)c1cn(-c2c(F)cc(F)cc2F)c2nc(N3C[C@@H](O)[C@H](O)C3)c(F)cc2c1=O)C(C)C (mixture of isomers) [Example 28, 7-[(3R,4R)-3,4-Dihydroxypyrrolidin-1-yl]-6-fluoro-N-(2-methylpentan-3-yl)-4-oxo-1-(2,4,6-trifluorophenyl)-1,4-dihydro-1,8-naphthyridine-3-carboxamide]
5.3		95	CC(C)C(NC(=O)c1cn(-c2c(F)cc(F)cc2F)c2nc(N3CC[C@H](O)C3)c(F)cc2c1=O)C(F)(F)F (single isomer, unassigned) [Example 140]
3.55	100		CC(C)C(NC(=O)c1cn(-c2c(F)cc(F)cc2F)c2nc(N3CC[C@H](O)C3)c(F)cc2c1=O)C(C)C [Example 122, N-(2,4-Dimethylpentan-3-yl)-6-fluoro-7-[(3S)-3-hydroxypyrrolidin-1-yl]-4-oxo-1-(2,4,6-tri-fluorophenyl)-1,4-dihydro-1,8-naphthyridine-3-carboxamide]
2.8		100	CCC(NC(=O)c1cn(-c2c(F)cc(F)cc2F)c2nc(N3CC[C@H](O)C3)c(F)cc2c1=O)C(C)C (single isomer, unassigned) [Example 118]
2.1	100		CC(C)(C)C(NC(=O)c1cn(-c2c(F)cc(F)cc2F)c2nc(N3CC(CO)(CO)C3)c(F)cc2c1=O)C(F)(F)C(F)(F)F (single isomer, unassigned) [Example 214, 7-[3,3-bis(hydroxymethyl)azetidin-1-yl]-6-fluoro-4-oxo-N-[1,1,1,2,2-pentafluoro-4,4-dimethylpentan-3-yl]-1-(2,4,6-trifluorophenyl)-1,4-dihydro-1,8-naphthyridine-3-carboxamide]
4.6	100		O=C(NC(c1ccccc1Cl)C(F)(F)F)c1cn(-c2c(F)cc(F)cc2F)c2nc(N3C[C@@H](O)[C@H](O)C3)c(F)cc2c1=O (mixture of isomers) [Example 131, N-[1-(2-Chlorophenyl)-2,2,2-trifluoroethyl]-7-[(3R,4R)-3,4-dihydroxypyrrolidin-1-yl]-6-fluoro-4-oxo-1-(2,4,6-trifluorophenyl)-1,4-dihydro-1,8-naphthyridine-3-carboxamide]
